Where “and” joins values, the source holds several entries; their conditions need not be identical. Identical values can stand only once.

Data set [1] has as its system ulcer formation induced by stress. The data set can be described thus: Inhibition of stress ulcer formation (immobilization-water immersion method), oral. Type of data set: in vivo, rats. To be noted: for dose dependency of stress ulcer inhibition: 0.3 to 30 mg/kg. The text has this:
Since 50 microns is a common particle diameter in pharmaceutical preparations, it was most surprising that such significant and important advantages resulted. Inhibition activity against stress ulcer in rats of the compound and pharmaceutically acceptable acid addition salts in the finely pulverized form are set forth in Table 2.

The nature of data set [2]: Body weight increase inhibition on chronic oral administration. The class given is in vivo, rats. To be noted: for body weight increase: 10 mg/kg or more per day, chronic oral, rats. The text has this: A further advantage resulted from body weight increase inhibition which is one of the main side effects of the compound and salts of the present invention. […] This is a side effect of triazines of this type.
The average particle sizes were 8 microns for the compound according our copending application as compared to the same compound having an average particle diameter of 50 microns.

In another data set the test system is ulcers. As to the kind of experiment: Clinical experiments: rate of recovery or cure of ulcers in patients. Type of data set: in vivo, humans. The procedure:
Clinical experiments were conducted wherein patients were given 1, 2 and 4 mg/day of 2,4-diamino-6-(2,5-dichlorophenyl)-1,3,5-triazine in separate groups. There were 133 patients participating in the group and 123 were separately analyzed (groups of 20, 46 and 57). The rate of recovery or cure of ulcers during those clinical trials over the period indicated was as follows: […]

In the next data set the test system is rats. The data set can be described thus: Acute toxicity (LD50), intraperitoneal injection. The class given is in vivo. To be noted: dosages up to 3000 mg/kg, average particle diameter about 8 microns. The text has this:
This decrease in toxicity is totally unexpected and represents a significant and important advance in the art.

Data set [3] can be described thus: Clinical experiments: side effects in patients. To be noted: 4 mg group. Type of data set: in vivo, humans. As to the method:
Clinical experiments were conducted wherein patients were given 1, 2 and 4 mg/day of 2,4-diamino-6-(2,5-dichlorophenyl)-1,3,5-triazine in separate groups. There were 133 patients participating in the group and 123 were separately analyzed (groups of 20, 46 and 57). The rate of recovery or cure of ulcers during those clinical trials over the period indicated was as follows:
Only one side effect was noted. There was an increase in transaminase (GOT and GPT) observed in one case (1.8% of the total) in the 4 mg group.

Data set [4] is described as follows: Average particle diameter after jet milling, Coulter Counter TA-II. The class given is physicochemical. To be noted: jet mill PJM-100 NP; dispersed in physiological saline with Tween-80. As to the method: 2,4-diamino-6-(2,5-dichlorophenyl)-1,3,5-triazine and pharmaceutically acceptable acid addition salts thereof may be finely pulverized to achieve the average particle diameter of 20 microns or less by using jet Mill PJM-100NP (Nippon Newmatic MEG Co.). The pulverization is carried out by feeding 2 kg or less of the substance per hour. An average particle diameter of about 8 microns may be prepared in that manner. If necessary, auxiliary pulverizing agents such as starch, anhydrous silicic acid, etc. may be used. In measuring average particle size, the powder is dispersed in physiological saline solution containing one drop of Tween-80 with the aid of an ultrasonic homogenizer for 30 seconds and measured by Coleter Counter TA-II (Coulter Electronics Co., U.S.A.) equipped with aperture tube of 100 microns.
2,4-Diamino-6-(2,5-dichlorophenyl)-1,3,5-triazine is powdered by supplying it at a rate of not more than 2 kg/hour to a Jet Mill PJM-100 NP (Nippon Newmatic Mfg. Co.). The pulverized pharmaceutical is dispersed in a physiological saline solution containing one drop of Tween-80 by the use of ultrasonic homogenizer for 30 seconds and their particle diameter in average is measured by Coulter Counter TA-II (Coleter Eelectronics Co., USA) and the result is about 8 microns.

Data set [5] concerns ulcer formation induced by stress. As to the kind of experiment: Inhibition of stress ulcer formation (immobilization-water immersion method), oral. Type of data set: in vivo, rats. The settings on record: average particle diameter about 50 microns; for Inhibition Rate (stress ulcer): three repeat values.
[6] abbreviates: 0.3 mg/kg, finely pulverized form.
[7] abbreviates: 1.0 mg/kg, finely pulverized form.
The mark [8] stands for this setting: 3.0 mg/kg, finely pulverized form.
Setting [9] is: 10 mg/kg, finely pulverized form.

Consider `Nc1nc(N)nc(-c2cc(Cl)ccc2Cl)n1` [Substance (I), 2,4-diamino-6-(2,5-dichlorophenyl)-1,3,5-triazine], for which the “Inhibition Rate (stress ulcer)” value is 33% in data set [1] (setting [6]); 45% in data set [1] (setting [7]); 63% in data set [1] (setting [8]); 70% in data set [1] (setting [9]); 85% in data set [1] (30 mg/kg, finely pulverized form); 37% and 46% and 29% in data set [5] (0.37 mg/kg per os). The “Inhibition Rate (stress ulcer)” value in data set [5] (3.72 mg/kg per os) is 62% and 47% and 33%. For the same compound, in data set [1] (finely pulverized form), the “dose dependency of stress ulcer inhibition” value is recorded as “linear dose dependency”. The “activity on ulcer formation induced by stress” value in data set [1] (oral, 1 mg/kg, finely pulverized (compound of earlier invention)) was “effective”; in data set [5] (oral, 5 mg/kg), “ineffective”. For the same compound, the body weight increase result in data set [2] is “body weight increase was inhibited”. The “recovery of body weight” value in data set [2] (about 8 microns compared to about 50 microns) is “far faster”. Besides, in data set [2] (average particle diameter about 8 microns), the “body weight increase inhibition (side effect)” value was “only transient and moderate”. For the same compound, the “rate of recovery or cure of ulcers” value stood at 20.0% in the data set on ulcers (1 mg/day, 4 weeks); 50.0% in the data set with ulcers (1 mg/day, 8 weeks); 17.4% in the data set with ulcers (2 mg/day, 4 weeks); 47.8% in the data set with ulcers (2 mg/day, 8 weeks); 41.6% in the data set on ulcers (4 mg/day, 4 weeks); 56.1% with ulcers (4 mg/day, 8 weeks). The “recovery rate of ulcer improvement, degree of ulcer, effect against subjective and non-subjective symptoms” value in the data set with ulcers (hospitalized patients, 4 mg group compared with other groups) is on record as “marked superiority”. Besides, the lethality result in the data set with rats is “no rats were killed”. Moreover, in data set [3] (only side effect noted), the “increase in transaminase (GOT and GPT), cases” value is on record as “one case”. Further, the “increase in transaminase (GOT and GPT), incidence” value in data set [3] (printed as % of the total) was determined as 1.8%. The average particle diameter entry in data set [4] was “about 8 microns”.
On to `Nc1nc(N)nc(-c2cc(Cl)ccc2Cl)n1` [Substance (II)], for which the “Inhibition Rate (stress ulcer)” value worked out at 35% in data set [1] (setting [6]), 51% in data set [1] (setting [7]), 70% in data set [1] (setting [8]) and 85% in data set [1] (setting [9]). Besides, the “dose dependency of stress ulcer inhibition” value in data set [1] (finely pulverized form) is “linear dose dependency”. In addition, in data set [1] (per os, finely pulverized form, from Table 2 data), the “ED50 (stress ulcer inhibition)” value is listed as 0.90 mg/kg. The body weight increase entry in data set [2] is “body weight increase was inhibited”. Also, in data set [2] (maleate salt according to the invention compared with maleate salt of about 50 microns), the “improvement in body weight side effect” value is “particularly dramatic”.

Values taken from patent US4657907A, “Low dosage compositions of finely pulverized 2,4-diamino-6-(2,5-dichlorophenyl)-1,3,5-triazine and pharmaceutically acceptable acid addition salts thereof and administration thereof” (Nippon Shinyaku Co., Ltd., priority 1981, dated 1987).
